Experimental data from PubChem BioAssay (NCI).
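Test compounds were applied to cells in 96-well plates for 48 hours at 5 doses. Definition used: TGI = concentration required for complete inhibition of growth.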

Tested on: HL-60(TB) leukemia
Assay: growth of human tumour cells (NCI), 48 h

| SMILES | TGI |
| --- | --- |
| CC1=CC(C)(C)[C@H]2O[C@@]3(O)C[C@]4(C)[C@H]5C[C@@](C(C)C)(O[C@H]4c4ccoc4)O[C@H]4[C@]5(C3)O[C@@]1(O)[C@]24O | > 100 µM |

Tested on: SN12C renal
Assay: growth of human tumour cells (NCI), 48 h

| SMILES | TGI |
| --- | --- |
| O=C1c2[nH]c3ccccc3c2CCN2CCCCC12 (centres undefined) | > 100 µM |
| COc1ccc(/C=C2\Oc3cc(OC(C)=O)ccc3C2=O)cc1 | > 100 µM |
| c1coc(C2=Nc3cccc4cccc(c34)N2)c1 | > 100 µM |
| CCOC(=O)C1C(=O)C=C(c2cc(C)ccc2O)CC1c1cccc(Cl)c1 (centres undefined) | 95.9 µM |
| CC1=CC(C)(C)[C@H]2O[C@@]3(O)C[C@]4(C)[C@H]5C[C@@](C(C)C)(O[C@H]4c4ccoc4)O[C@H]4[C@]5(C3)O[C@@]1(O)[C@]24O | > 100 µM |

Tested on: SK-MEL-28 melanoma
Assay: growth of human tumour cells (NCI), 48 h

| SMILES | TGI |
| --- | --- |
| O=C1c2[nH]c3ccccc3c2CCN2CCCCC12 (centres undefined) | > 100 µM |
| COc1ccc(/C=C2\Oc3cc(OC(C)=O)ccc3C2=O)cc1 | > 100 µM |
| c1coc(C2=Nc3cccc4cccc(c34)N2)c1 | > 100 µM |
| CC1=CC(C)(C)[C@H]2O[C@@]3(O)C[C@]4(C)[C@H]5C[C@@](C(C)C)(O[C@H]4c4ccoc4)O[C@H]4[C@]5(C3)O[C@@]1(O)[C@]24O | > 100 µM |

Tested on: CCRF-CEM leukemia
Assay: growth of human tumour cells (NCI), 48 h

| SMILES | TGI |
| --- | --- |
| O=C1c2[nH]c3ccccc3c2CCN2CCCCC12 (centres undefined) | 57.3 µM |
| COc1ccc(/C=C2\Oc3cc(OC(C)=O)ccc3C2=O)cc1 | > 100 µM |
| c1coc(C2=Nc3cccc4cccc(c34)N2)c1 | > 100 µM |
| CCOC(=O)C1C(=O)C=C(c2cc(C)ccc2O)CC1c1cccc(Cl)c1 (centres undefined) | 94.7 µM |
| CC1=CC(C)(C)[C@H]2O[C@@]3(O)C[C@]4(C)[C@H]5C[C@@](C(C)C)(O[C@H]4c4ccoc4)O[C@H]4[C@]5(C3)O[C@@]1(O)[C@]24O | > 100 µM |

Tested on: RXF 393 renal
Assay: growth of human tumour cells (NCI), 48 h

| SMILES | TGI |
| --- | --- |
| O=C1c2[nH]c3ccccc3c2CCN2CCCCC12 (centres undefined) | 61.2 µM |
| COc1ccc(/C=C2\Oc3cc(OC(C)=O)ccc3C2=O)cc1 | > 100 µM |
| c1coc(C2=Nc3cccc4cccc(c34)N2)c1 | 76.9 µM |
| CCOC(=O)C1C(=O)C=C(c2cc(C)ccc2O)CC1c1cccc(Cl)c1 (centres undefined) | 54.5 µM |
| CC1=CC(C)(C)[C@H]2O[C@@]3(O)C[C@]4(C)[C@H]5C[C@@](C(C)C)(O[C@H]4c4ccoc4)O[C@H]4[C@]5(C3)O[C@@]1(O)[C@]24O | > 100 µM |

Tested on: OVCAR-4 ovarian
Assay: growth of human tumour cells (NCI), 48 h

| SMILES | TGI |
| --- | --- |
| O=C1c2[nH]c3ccccc3c2CCN2CCCCC12 (centres undefined) | 96.5 µM |
| COc1ccc(/C=C2\Oc3cc(OC(C)=O)ccc3C2=O)cc1 | > 100 µM |
| c1coc(C2=Nc3cccc4cccc(c34)N2)c1 | 84.9 µM |
| CCOC(=O)C1C(=O)C=C(c2cc(C)ccc2O)CC1c1cccc(Cl)c1 (centres undefined) | 56.2 µM |
| CC1=CC(C)(C)[C@H]2O[C@@]3(O)C[C@]4(C)[C@H]5C[C@@](C(C)C)(O[C@H]4c4ccoc4)O[C@H]4[C@]5(C3)O[C@@]1(O)[C@]24O | > 100 µM |

Tested on: ACHN renal
Assay: growth of human tumour cells (NCI), 48 h

| SMILES | TGI |
| --- | --- |
| O=C1c2[nH]c3ccccc3c2CCN2CCCCC12 (centres undefined) | 46 µM |
| COc1ccc(/C=C2\Oc3cc(OC(C)=O)ccc3C2=O)cc1 | > 100 µM |
| c1coc(C2=Nc3cccc4cccc(c34)N2)c1 | 57.6 µM |
| CCOC(=O)C1C(=O)C=C(c2cc(C)ccc2O)CC1c1cccc(Cl)c1 (centres undefined) | 51.7 µM |
| CC1=CC(C)(C)[C@H]2O[C@@]3(O)C[C@]4(C)[C@H]5C[C@@](C(C)C)(O[C@H]4c4ccoc4)O[C@H]4[C@]5(C3)O[C@@]1(O)[C@]24O | > 100 µM |

Tested on: LOX IMVI melanoma
Assay: growth of human tumour cells (NCI), 48 h

| SMILES | TGI |
| --- | --- |
| O=C1c2[nH]c3ccccc3c2CCN2CCCCC12 (centres undefined) | 44.9 µM |
| c1coc(C2=Nc3cccc4cccc(c34)N2)c1 | > 100 µM |
| CCOC(=O)C1C(=O)C=C(c2cc(C)ccc2O)CC1c1cccc(Cl)c1 (centres undefined) | 57.4 µM |
| CC1=CC(C)(C)[C@H]2O[C@@]3(O)C[C@]4(C)[C@H]5C[C@@](C(C)C)(O[C@H]4c4ccoc4)O[C@H]4[C@]5(C3)O[C@@]1(O)[C@]24O | > 100 µM |

Tested on: M14 melanoma
Assay: growth of human tumour cells (NCI), 48 h

| SMILES | TGI |
| --- | --- |
| O=C1c2[nH]c3ccccc3c2CCN2CCCCC12 (centres undefined) | 35.3 µM |
| COc1ccc(/C=C2\Oc3cc(OC(C)=O)ccc3C2=O)cc1 | > 100 µM |
| c1coc(C2=Nc3cccc4cccc(c34)N2)c1 | > 100 µM |
| CCOC(=O)C1C(=O)C=C(c2cc(C)ccc2O)CC1c1cccc(Cl)c1 (centres undefined) | > 100 µM |
| CC1=CC(C)(C)[C@H]2O[C@@]3(O)C[C@]4(C)[C@H]5C[C@@](C(C)C)(O[C@H]4c4ccoc4)O[C@H]4[C@]5(C3)O[C@@]1(O)[C@]24O | > 100 µM |

Tested on: OVCAR-5 ovarian
Assay: growth of human tumour cells (NCI), 48 h

| SMILES | TGI |
| --- | --- |
| O=C1c2[nH]c3ccccc3c2CCN2CCCCC12 (centres undefined) | 44.1 µM |
| CCOC(=O)C1C(=O)C=C(c2cc(C)ccc2O)CC1c1cccc(Cl)c1 (centres undefined) | > 100 µM |
| CC1=CC(C)(C)[C@H]2O[C@@]3(O)C[C@]4(C)[C@H]5C[C@@](C(C)C)(O[C@H]4c4ccoc4)O[C@H]4[C@]5(C3)O[C@@]1(O)[C@]24O | > 100 µM |

Tested on: MOLT-4 leukemia
Assay: growth of human tumour cells (NCI), 48 h

| SMILES | TGI |
| --- | --- |
| O=C1c2[nH]c3ccccc3c2CCN2CCCCC12 (centres undefined) | 56.7 µM |
| COc1ccc(/C=C2\Oc3cc(OC(C)=O)ccc3C2=O)cc1 | > 100 µM |
| c1coc(C2=Nc3cccc4cccc(c34)N2)c1 | > 100 µM |
| CCOC(=O)C1C(=O)C=C(c2cc(C)ccc2O)CC1c1cccc(Cl)c1 (centres undefined) | > 100 µM |
| CC1=CC(C)(C)[C@H]2O[C@@]3(O)C[C@]4(C)[C@H]5C[C@@](C(C)C)(O[C@H]4c4ccoc4)O[C@H]4[C@]5(C3)O[C@@]1(O)[C@]24O | > 100 µM |

Tested on: NCI-H460 lung
Assay: growth of human tumour cells (NCI), 48 h

| SMILES | TGI |
| --- | --- |
| O=C1c2[nH]c3ccccc3c2CCN2CCCCC12 (centres undefined) | > 100 µM |
| COc1ccc(/C=C2\Oc3cc(OC(C)=O)ccc3C2=O)cc1 | > 100 µM |
| c1coc(C2=Nc3cccc4cccc(c34)N2)c1 | > 100 µM |
| CCOC(=O)C1C(=O)C=C(c2cc(C)ccc2O)CC1c1cccc(Cl)c1 (centres undefined) | > 100 µM |

Tested on: MCF7 breast
Assay: growth of human tumour cells (NCI), 48 h

| SMILES | TGI |
| --- | --- |
| O=C1c2[nH]c3ccccc3c2CCN2CCCCC12 (centres undefined) | > 100 µM |
| COc1ccc(/C=C2\Oc3cc(OC(C)=O)ccc3C2=O)cc1 | > 100 µM |
| c1coc(C2=Nc3cccc4cccc(c34)N2)c1 | > 100 µM |
| CCOC(=O)C1C(=O)C=C(c2cc(C)ccc2O)CC1c1cccc(Cl)c1 (centres undefined) | 74.5 µM |
| CC1=CC(C)(C)[C@H]2O[C@@]3(O)C[C@]4(C)[C@H]5C[C@@](C(C)C)(O[C@H]4c4ccoc4)O[C@H]4[C@]5(C3)O[C@@]1(O)[C@]24O | > 100 µM |

Tested on: UACC-62 melanoma
Assay: growth of human tumour cells (NCI), 48 h

| SMILES | TGI |
| --- | --- |
| O=C1c2[nH]c3ccccc3c2CCN2CCCCC12 (centres undefined) | 37 µM |
| COc1ccc(/C=C2\Oc3cc(OC(C)=O)ccc3C2=O)cc1 | > 100 µM |
| c1coc(C2=Nc3cccc4cccc(c34)N2)c1 | > 100 µM |
| CCOC(=O)C1C(=O)C=C(c2cc(C)ccc2O)CC1c1cccc(Cl)c1 (centres undefined) | 47 µM |
| CC1=CC(C)(C)[C@H]2O[C@@]3(O)C[C@]4(C)[C@H]5C[C@@](C(C)C)(O[C@H]4c4ccoc4)O[C@H]4[C@]5(C3)O[C@@]1(O)[C@]24O | > 100 µM |

Tested on: CAKI-1 renal
Assay: growth of human tumour cells (NCI), 48 h

| SMILES | TGI |
| --- | --- |
| O=C1c2[nH]c3ccccc3c2CCN2CCCCC12 (centres undefined) | > 100 µM |
| COc1ccc(/C=C2\Oc3cc(OC(C)=O)ccc3C2=O)cc1 | 86.7 µM |
| c1coc(C2=Nc3cccc4cccc(c34)N2)c1 | > 100 µM |
| CCOC(=O)C1C(=O)C=C(c2cc(C)ccc2O)CC1c1cccc(Cl)c1 (centres undefined) | > 100 µM |
| CC1=CC(C)(C)[C@H]2O[C@@]3(O)C[C@]4(C)[C@H]5C[C@@](C(C)C)(O[C@H]4c4ccoc4)O[C@H]4[C@]5(C3)O[C@@]1(O)[C@]24O | > 100 µM |

Tested on: RPMI-8226 leukemia
Assay: growth of human tumour cells (NCI), 48 h

| SMILES | TGI |
| --- | --- |
| O=C1c2[nH]c3ccccc3c2CCN2CCCCC12 (centres undefined) | 42.6 µM |
| COc1ccc(/C=C2\Oc3cc(OC(C)=O)ccc3C2=O)cc1 | > 100 µM |
| c1coc(C2=Nc3cccc4cccc(c34)N2)c1 | > 100 µM |
